Laboratory results: US4800161A (priority 1984, dated 1989)

How the values were obtained:
[1] = biological target: aldose-1-epimerase (mutarotase, EC 5.1.3.3) from Acinetobacter calcoaceticus (Acinetobacter calcoaceticus, UniProt P05149)
Procedure: Principle: [drawing 1] Mutarotase, glucose-dehydrogenase and NAD are caused to react with a freshly prepared solution of α-glucose, and the NADH2 is determined by measuring the extinction at 366 nm. The measurement of the acceleration of the formation of NADH2 by mutarotase (compared with a blank without mutarotase) allows the mutarotase activity in the solution used to be calculated.
As soon as the extinction is constant, the start is made with 0.10 ml of solution 4 in each case.
A fresh glucose solution is prepared for each measurement. It is absolutely necessary to adhere to the following procedure in order to allow for the existing mutarotation: a 150 ml beaker is filled with 100 ml of distilled water and the temperature is adjusted to 20° C. The beaker is evenly stirred, 30 mg of α-glucose are added, the stopwatch is started and the time is marked on the recorder chart. Mixing takes place for 30 seconds. Within the next 15 seconds, the glucose solution is pipetted into the cell, the cell content is thoroughly mixed and, after the expiration of these 15 seconds, the increase in extinction is recorded. The measurment is taken at 366 nm, layer thickness 1 cm, cell temperature 25° C.
For evaluation, a tangent is put to the linear part at the origin of the recording curve, and ΔE/minute is read off; subtraction of the blank from the analysis value gives a value of ΔΔE/minute, which is inserted into the following calculation equation:
Enzyme activity=ΔΔE/minute×4.09 U of mutarotase per ml of […]

[2] = system: mutarotase from Aspergillus niger; conditions: read-out: Michaelis constant (KM); Biochim. Biophys. Acta 662, 285 (1981); cited from earlier work
[3] = biological target: mutarotase from bovine kidneys (Bos taurus, UniProt Q5EA79); conditions: read-out: Michaelis constant (KM); glucose determination context
Sequence of mutarotase from bovine kidneys (Q5EA79 whole entry): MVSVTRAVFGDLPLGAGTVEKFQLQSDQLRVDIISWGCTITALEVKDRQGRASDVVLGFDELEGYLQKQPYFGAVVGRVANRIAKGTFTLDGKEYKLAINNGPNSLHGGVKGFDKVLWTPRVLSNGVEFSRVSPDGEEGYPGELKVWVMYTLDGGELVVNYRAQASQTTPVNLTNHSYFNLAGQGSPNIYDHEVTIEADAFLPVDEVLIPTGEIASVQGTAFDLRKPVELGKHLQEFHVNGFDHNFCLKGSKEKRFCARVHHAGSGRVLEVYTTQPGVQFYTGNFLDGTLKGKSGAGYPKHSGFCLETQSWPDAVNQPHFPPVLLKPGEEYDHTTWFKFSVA

Sequence of aldose-1-epimerase (mutarotase, EC 5.1.3.3) from Acinetobacter calcoaceticus (P05149 21-381): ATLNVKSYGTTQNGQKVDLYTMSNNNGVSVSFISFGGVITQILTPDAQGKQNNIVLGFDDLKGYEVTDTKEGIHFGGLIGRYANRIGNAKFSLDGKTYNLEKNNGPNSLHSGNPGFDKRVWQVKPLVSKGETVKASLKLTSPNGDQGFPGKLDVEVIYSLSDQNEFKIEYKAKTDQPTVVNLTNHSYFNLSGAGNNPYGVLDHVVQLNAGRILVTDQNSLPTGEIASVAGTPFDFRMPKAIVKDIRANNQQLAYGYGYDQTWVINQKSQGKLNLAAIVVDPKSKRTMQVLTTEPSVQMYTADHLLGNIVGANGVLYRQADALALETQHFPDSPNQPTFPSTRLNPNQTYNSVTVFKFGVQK

## galactose
[1]
  Michaelis constant for galactose compared with glucose: same Michaelis constant
  Michaelis constant for galactose relative to that of the mutarotase from bovine kidneys: 3 times

## glucose
[2]
  Km: 50 mM
[1]; read-out: Michaelis constant (KM) for glucose, mutarotase according to the invention
  Km: 6 to 8 mM
[3]
  Km: 18 to 20 mM
